In patent US12024503B2, “Benzethers and anilines of pyrazolyl-amino-pyrimidinyl derivatives, and compositions and methods thereof” (LYNK PHARMACEUTICALS CO. LTD., priority 2019, dated 2024):
Where two headings read alike, the source gives them in different places.

Columns and labels:
Format in all cases: biochemical
JAK1 = target: T1, JAK1 (Homo sapiens, UniProt P23458); experiment: JAK1 microfluidic kinase assay (Caliper EZ Reader II, FAM labeled peptide substrate); details: (5 nM), 1 mM ATP
T1 construct: purchased Carna Biosciences
Description: (§1) Compounds were tested against JAK1, JAK2, JAK2V617F and TYK2.
(§2) Assay Formats: JAK activity was determined in the reaction buffer 50 mM HEPES, 0.01% Brij35, 10 mMMgCl2, 2 mMDTT by a microfluidic assay. The phosphorylation of a FAM labeled peptide substrate was monitored in the Caliper EZ Reader II (Perkin Elmer). The assay condition for each batch of enzyme (Carna Biosciences) was optimized to obtain 10% conversion rate of peptide substrate.
(§3) The test compounds were dissolved in DMSO to a stock concentration of 10 mM. 3-fold serially diluted compounds with top concentration of 5 μM were pre-incubated with JAK1, JAK2, JAK2V617F or TYK2 for 10 min at ambient temperature. The final DMSO concentration of assay mixture was 1%. FAM labeled peptide substrate (final concentration […]) and ATP (1 mM concentration) were sequentially added to initiate the kinase reaction at 28° C. The reaction was stopped by adding 50 mMEDTA. The reaction time for JAK1, JAK2, JAK2V617F and TYK2 was 120 min, 20 min, 30 min and 10 min, respectively.
(§4) The well in the test plate without enzyme was defined as 100% inhibition. And the well without compound but with equivalent DMSO was defined as no inhibition. The percent inhibition was calculated by the following formula. % Inhibition=(Conversionmax−Conversionsample)/(Conversionmax−Conversionmin)*100Conversionmax means the conversion rate in the positive well without addition of compound Conversionmin means the conversion rate in the well without addition of enzyme Conversionsample means the conversion rate of test compounds
(§5) The dose-response (percent inhibition) curve was plotted and IC50 values were determined by GraphPad software.

JAK2 = target: T2, JAK2 (Homo sapiens, UniProt O60674); experiment: JAK2 microfluidic kinase assay (Caliper EZ Reader II, FAM labeled peptide substrate); details: (0.25 nM), 1 mM ATP
T2 construct: purchased Carna Biosciences
Description: as §1, §2, §3, §4, §5

TYK2 = target: T3, TYK2 (Homo sapiens, UniProt P29597); experiment: TYK2 microfluidic kinase assay (Caliper EZ Reader II, FAM labeled peptide substrate); details: (2.5 nM), 1 mM ATP
T3 construct: purchased Carna Biosciences
Description: as §1, §2, §3, §4, §5

JAK2V617F = target: T4, JAK2V617F (Homo sapiens, UniProt O60674, V617F); experiment: JAK2V617F microfluidic kinase assay (Caliper EZ Reader II, FAM labeled peptide substrate); details: (2.5 nM), 1 mM ATP
T4 construct: purchased Carna Biosciences
Description: as §1, §2, §3, §4, §5

[1] = Table 2, read-out: IC50 JAK1 (5 nM) (1 mM ATP)
[2] = Table 2, read-out: IC50 JAK2 (0.25 nM) (1 mM ATP)
[3] = Table 2, read-out: IC50 TYK2 (2.5 nM) (1 mM ATP)
[4] = Table 3B, literature compounds, read-out: JAK1 (5 nM) (1 mM ATP)
[5] = Table 3B, literature compounds, read-out: JAK2 (0.25 nM) (1 mM ATP)
[6] = Table 3B, literature compounds, read-out: J2V617F (2.5 nM) (1 mM ATP)
[7] = Table 3B, literature compounds, read-out: TYK2 (2.5 nM) (1 mM ATP)
[8] = Table 2, read-out: IC50 J2V617F (2.5 nM) (1 mM ATP)

T1 sequence (P23458 whole entry): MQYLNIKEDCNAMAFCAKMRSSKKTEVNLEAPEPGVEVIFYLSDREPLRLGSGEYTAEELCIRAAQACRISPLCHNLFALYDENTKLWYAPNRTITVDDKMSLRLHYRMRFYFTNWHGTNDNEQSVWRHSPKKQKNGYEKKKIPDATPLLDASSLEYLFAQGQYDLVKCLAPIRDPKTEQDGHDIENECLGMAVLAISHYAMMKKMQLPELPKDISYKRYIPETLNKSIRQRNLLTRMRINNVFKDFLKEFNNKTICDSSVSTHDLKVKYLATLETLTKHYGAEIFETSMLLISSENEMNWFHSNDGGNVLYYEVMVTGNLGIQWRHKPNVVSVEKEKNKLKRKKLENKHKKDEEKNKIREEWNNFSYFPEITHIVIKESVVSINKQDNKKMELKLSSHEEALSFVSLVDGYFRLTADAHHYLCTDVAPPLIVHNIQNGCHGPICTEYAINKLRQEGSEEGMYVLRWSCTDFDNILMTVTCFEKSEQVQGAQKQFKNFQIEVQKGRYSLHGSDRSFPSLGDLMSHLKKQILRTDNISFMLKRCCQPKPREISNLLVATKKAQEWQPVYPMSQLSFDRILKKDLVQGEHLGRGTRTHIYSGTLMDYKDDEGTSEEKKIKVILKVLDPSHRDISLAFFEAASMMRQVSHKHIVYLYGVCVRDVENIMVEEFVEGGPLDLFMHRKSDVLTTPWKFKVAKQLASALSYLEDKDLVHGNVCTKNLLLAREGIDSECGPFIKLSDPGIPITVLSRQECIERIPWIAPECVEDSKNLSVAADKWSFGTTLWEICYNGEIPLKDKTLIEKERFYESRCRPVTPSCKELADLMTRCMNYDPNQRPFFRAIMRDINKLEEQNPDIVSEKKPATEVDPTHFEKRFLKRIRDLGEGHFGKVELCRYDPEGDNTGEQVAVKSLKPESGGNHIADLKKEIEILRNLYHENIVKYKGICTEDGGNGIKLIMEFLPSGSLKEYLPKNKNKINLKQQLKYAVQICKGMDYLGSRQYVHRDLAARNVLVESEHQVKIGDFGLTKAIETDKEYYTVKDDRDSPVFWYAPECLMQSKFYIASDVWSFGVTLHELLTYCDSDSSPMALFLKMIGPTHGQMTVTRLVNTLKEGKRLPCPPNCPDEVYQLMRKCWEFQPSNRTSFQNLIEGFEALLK
T3 sequence (P29597 whole entry): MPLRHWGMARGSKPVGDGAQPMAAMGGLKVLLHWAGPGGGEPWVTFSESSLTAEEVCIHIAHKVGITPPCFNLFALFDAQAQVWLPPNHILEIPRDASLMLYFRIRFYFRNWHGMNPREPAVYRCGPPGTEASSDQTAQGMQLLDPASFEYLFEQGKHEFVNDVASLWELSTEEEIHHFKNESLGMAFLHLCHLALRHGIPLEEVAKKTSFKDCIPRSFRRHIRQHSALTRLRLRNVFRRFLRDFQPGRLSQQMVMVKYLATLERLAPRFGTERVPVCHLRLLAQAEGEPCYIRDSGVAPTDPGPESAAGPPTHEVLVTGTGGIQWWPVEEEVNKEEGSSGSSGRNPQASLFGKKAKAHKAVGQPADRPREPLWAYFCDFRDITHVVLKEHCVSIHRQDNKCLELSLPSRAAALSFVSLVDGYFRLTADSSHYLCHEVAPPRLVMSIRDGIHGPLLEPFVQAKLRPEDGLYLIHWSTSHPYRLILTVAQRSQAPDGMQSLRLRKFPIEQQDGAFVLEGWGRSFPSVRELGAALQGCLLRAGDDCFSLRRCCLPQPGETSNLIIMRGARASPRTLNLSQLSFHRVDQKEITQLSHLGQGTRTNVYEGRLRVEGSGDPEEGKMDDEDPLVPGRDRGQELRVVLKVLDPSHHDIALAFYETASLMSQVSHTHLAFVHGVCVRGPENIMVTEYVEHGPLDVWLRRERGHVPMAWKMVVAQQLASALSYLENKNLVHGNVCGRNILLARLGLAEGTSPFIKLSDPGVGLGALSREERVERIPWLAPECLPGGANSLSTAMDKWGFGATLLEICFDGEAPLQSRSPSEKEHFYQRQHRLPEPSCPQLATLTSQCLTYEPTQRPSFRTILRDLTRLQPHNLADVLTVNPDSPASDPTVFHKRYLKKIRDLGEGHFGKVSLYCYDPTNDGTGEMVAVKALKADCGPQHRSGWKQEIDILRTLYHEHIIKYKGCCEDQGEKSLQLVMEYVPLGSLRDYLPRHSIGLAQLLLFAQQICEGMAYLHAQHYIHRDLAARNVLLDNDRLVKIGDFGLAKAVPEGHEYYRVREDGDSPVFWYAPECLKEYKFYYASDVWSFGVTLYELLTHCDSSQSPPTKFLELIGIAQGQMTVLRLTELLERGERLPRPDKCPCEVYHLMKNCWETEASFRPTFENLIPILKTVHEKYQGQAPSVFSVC
T2 sequence (O60674 whole entry): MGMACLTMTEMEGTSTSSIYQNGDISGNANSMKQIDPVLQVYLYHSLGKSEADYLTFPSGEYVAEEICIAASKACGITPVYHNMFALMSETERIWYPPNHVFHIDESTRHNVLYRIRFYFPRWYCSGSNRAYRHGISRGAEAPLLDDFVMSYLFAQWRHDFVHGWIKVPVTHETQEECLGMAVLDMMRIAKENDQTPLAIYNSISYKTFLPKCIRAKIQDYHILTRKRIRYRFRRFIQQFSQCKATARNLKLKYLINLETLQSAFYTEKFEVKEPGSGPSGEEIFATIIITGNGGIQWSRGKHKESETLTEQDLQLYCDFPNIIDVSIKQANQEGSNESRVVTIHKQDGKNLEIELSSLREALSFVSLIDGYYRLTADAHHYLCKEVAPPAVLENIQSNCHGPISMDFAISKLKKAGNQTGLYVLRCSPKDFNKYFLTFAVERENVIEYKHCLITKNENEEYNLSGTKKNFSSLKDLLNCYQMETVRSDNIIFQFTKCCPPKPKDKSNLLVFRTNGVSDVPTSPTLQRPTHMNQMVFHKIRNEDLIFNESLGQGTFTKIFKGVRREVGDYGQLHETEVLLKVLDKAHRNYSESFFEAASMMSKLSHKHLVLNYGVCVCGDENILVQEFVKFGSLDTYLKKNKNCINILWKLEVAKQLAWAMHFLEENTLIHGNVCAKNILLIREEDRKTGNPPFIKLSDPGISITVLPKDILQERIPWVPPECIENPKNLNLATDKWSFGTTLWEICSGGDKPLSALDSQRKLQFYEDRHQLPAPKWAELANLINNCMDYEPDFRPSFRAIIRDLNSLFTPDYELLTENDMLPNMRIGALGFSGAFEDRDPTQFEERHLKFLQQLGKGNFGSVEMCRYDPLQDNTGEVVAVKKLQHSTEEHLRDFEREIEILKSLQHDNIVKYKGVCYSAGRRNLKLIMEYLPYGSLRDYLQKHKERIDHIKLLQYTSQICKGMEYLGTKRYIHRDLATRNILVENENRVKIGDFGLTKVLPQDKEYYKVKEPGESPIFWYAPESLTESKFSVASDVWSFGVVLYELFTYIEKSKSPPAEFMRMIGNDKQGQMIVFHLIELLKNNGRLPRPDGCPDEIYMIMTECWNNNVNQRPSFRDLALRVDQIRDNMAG
T4 sequence (O60674 whole entry V617F): as the sequence (O60674 whole entry) above, with V617F counted along it

Compound | IC50 (JAK1; [1]) | IC50 (JAK2; [2]) | IC50 (TYK2; [3]) | IC50 (JAK1; [4]) | IC50 (JAK2; [5]) | IC50 (JAK2V617F; [6]) | IC50 (TYK2; [7]) | IC50 (JAK2V617F; [8])
CC(C)(C#N)COc1ccc(-c2nc(Nc3cnn(C4CC4)c3)ncc2Cl)cc1 [Example 32, 3-(4-(5-chloro-2-((1-cyclopropyl-1H-pyrazol-4-yl)amino)pyrimidin-4-yl)phenoxy)-2,2-dimethylpropanenitrile] | 28.9 nM | 0.9 nM | 106 nM |  |  |  |  | 
Cc1cnc(Nc2cnn(C(C)C(F)(F)F)c2)nc1-c1ccc(OCC(C)(C)C#N)c(F)c1 (stereo not shown) [Example 40, 3-(2-fluoro-4-(5-methyl-2-((1-(1,1,1-trifluoropropan-2-yl)-1H-pyrazol-4-yl)amino)pyrimidin-4-yl)phenoxy)-2,2-dimethylpropanenitrile] | < 2.5 nM | 0.654 nM | 1.78 nM |  |  |  |  | 
Cc1cnc(Nc2cnn(C3CC3)c2)nc1-c1ccc(NCC2(C#N)CC2)cc1 [Example 42, 1-(((4-(2-((1-cyclopropyl-1H-pyrazol-4-yl)amino)-5-methylpyrimidin-4-yl)phenyl)amino)methyl)cyclopropane carbonitrile] | 19.2 nM | 27.4 nM | 102 nM |  |  |  |  | 
Cc1cnc(Nc2cnn(C3CCN(C)CC3)c2)nc1-c1ccc(OCC(C)(C)C#N)c(F)c1 [Example 18, 3-(2-fluoro-4-(5-methyl-2-((1-(1-methylpiperidin-4-yl)-1H-pyrazol-4-yl)amino)pyrimidin-4-yl)phenoxy)-2,2-dimethylpropanenitrile] | < 2.5 nM | 0.427 nM | < 1.25 nM |  |  |  |  | 
Cn1cc(Nc2ncc(Cl)c(-c3ccc(OCC(C)(C)C#N)cc3)n2)cn1 [Example 29, 3-(4-(5-chloro-2-((1-methyl-1H-pyrazol-4-yl)amino)pyrimidin-4-yl)phenoxy)-2,2-dimethylpropanenitrile] | 14.1 nM | 3.4 nM | 41.4 nM |  |  |  |  | 
CCOc1ccc(-c2nc(Nc3cnn(C(C)C)c3)ncc2C)cc1F [Example 49, 4-(4-ethoxy-3-fluorophenyl)-N-(1-isopropyl-1H-pyrazol-4-yl)-5-methylpyrimidin-2-amine, reference compound] |  |  |  | 52.6 nM | 80.7 nM | 103 nM | 41.3 nM | 
Cc1cnc(Nc2cnn(C3CC3)c2)nc1-c1ccc(OCC(C)(C)C#N)c(F)c1 [Example 4, 3-(4-(2-((1-cyclopropyl-1H-pyrazol-4-yl)amino)-5-methylpyrimidin-4-yl)-2-fluorophenoxy)-2,2-dimethylpropanenitrile] | < 2.5 nM | 0.425 nM | < 1.25 nM |  |  |  |  | < 1.25 nM
Cc1cnc(Nc2cnn(C3CCNCC3)c2)nc1-c1ccc(OCC(C)(C)C#N)c(F)c1 [Example 39, 3-(2-fluoro-4-(5-methyl-2-((1-(piperidin-4-yl)-1H-pyrazol-4-yl)amino)pyrimidin-4-yl)phenoxy)-2,2-dimethylpropanenitrile] | < 2.5 nM | 0.377 nM | < 1.25 nM |  |  |  |  | 
Cc1cnc(Nc2cnn(C)c2)nc1-c1ccc(OCC(C)(C)C#N)cc1 [Example 38, 2,2-dimethyl-3-(4-(5-methyl-2-((1-methyl-1H-pyrazol-4-yl)amino)pyrimidin-4-yl)phenoxy)propanenitrile] | 7.49 nM | 1.09 nM | 2.62 nM |  |  |  |  | 
Cc1cnc(Nc2cnn(C3CC3)c2)nc1-c1ccc(OCC2(C#N)CCC2)cc1 [Example 3, 1-((4-(2-((1-cyclopropyl-1H-pyrazol-4-yl)amino)-5-methylpyrimidin-4-yl)phenoxy)methyl)cyclobutane-carbonitrile] | 8.86 nM |  | 21.9 nM |  |  |  |  | 28.1 nM
Cc1cnc(Nc2cnn(C)c2)nc1-c1ccc(OCCC#N)c(F)c1 [Example 12, 3-(2-fluoro-4-(5-methyl-2-((1-methyl-1H-pyrazol-4-yl)amino)pyrimidin-4-yl)phenoxy)propanenitrile] | 19.6 nM | 32.3 nM | 64.7 nM |  |  |  |  | 
Cc1cnc(Nc2cnn(C3CCN(C)CC3)c2)nc1-c1ccc(OCC(C)(C)C#N)cc1 [Example 17, 2,2-dimethyl-3-(4-(5-methyl-2-((1-(1-methylpiperidin-4-yl)-1H-pyrazol-4-yl)amino)pyrimidin-4-yl)phenoxy)propanenitrile] | < 2.5 nM | < 0.25 nM | < 1.25 nM |  |  |  |  | < 1.25 nM
CCOc1ccc(-c2nc(Nc3cnn(C)c3)ncc2C)cc1 [Example 50, 4-(4-ethoxyphenyl)-5-methyl-N-(1-methyl-1H-pyrazol-4-yl)pyrimidin-2-amine, reference compound] |  |  |  | 151 nM | 201 nM | 343 nM | 157 nM | 
Cc1cnc(Nc2cnn(C)c2)nc1-c1ccc(OCCC#N)cc1 [Example 41, 3-(4-(5-methyl-2-((1-methyl-1H-pyrazol-4-yl)amino)pyrimidin-4-yl)phenoxy)propanenitrile] | 19.6 nM | 32.3 nM | 64.7 nM |  |  |  |  | 
Cc1cnc(Nc2cnn(C3CC3)c2)nc1-c1ccc(OCC2(C#N)CC2)c(F)c1 [Example 5, 1-((4-(2-((1-cyclopropyl-1H-pyrazol-4-yl)amino)-5-methylpyrimidin-4-yl)-2-fluorophenoxy)methyl)cyclopropane-carbonitrile] | 3.32 nM |  | 3.26 nM |  |  |  |  | < 1.25 nM
Cc1cnc(Nc2cnn(C3CC3)c2)nc1-c1ccc(OCC2(C#N)CC2)nc1 [Example 11, 1-(((5-(2-((l-cyclopropyl-1H-pyrazol-4-yl)amino)-5-methylpyrimidin-4-yl)pyridin-2-yl)oxy)methyl)cyclopropanecarbonitrile] | 65.1 nM |  | 218 nM |  |  |  |  | 138 nM
Cc1cnc(Nc2cnn(C3CCOCC3)c2)nc1-c1ccc(OCC2(C#N)CC2)nc1 [Example 14, 1-(((5-(5-methyl-2-((1-(tetrahydro-2H-pyran-4-yl)-1H-pyrazol-4-yl)amino)pyrimidin-4-yl)pyridin-2-yl)oxy)methyl)cyclopropanecarbonitrile] | 202 nM |  | 351 nM |  |  |  |  | 163 nM
Cc1cnc(Nc2cnn(C3CC3)c2)nc1-c1ccc(NCC(C)(C)C#N)c(F)c1 [Example 37, 3-((4-(2-((1-cyclopropyl-1H-pyrazol-4-yl)amino)-5-methylpyrimidin-4-yl)-2-fluorophenyl)amino)-2,2-dimethylpropanenitrile] | 14.5 nM | 0.741 nM | < 1.25 nM |  |  |  |  | 
Cc1cnc(Nc2cnn(C3CCN(C)CC3)c2)nc1-c1ccc(OCC2(C#N)CC2)c(F)c1 [Example 20, 1-((2-fluoro-4-(5-methyl-2-((1-(1-methylpiperidin-4-yl)-1H-pyrazol-4-yl)amino)pyrimidin-4-yl)phenoxy)methyl)cyclopropane-carbonitrile] | < 2.5 nM | 0.251 nM | < 1.25 nM |  |  |  |  | 
Cc1cnc(Nc2cnn(C3CCN(C)CC3)c2)nc1-c1ccc(NCC2(C#N)CC2)cc1 [Example 43, 1-(((4-(5-methyl-2-((1-(1-methylpiperidin-4-yl)-1H-pyrazol-4-yl)amino)pyrimidin-4-yl)phenyl)amino)methyl)cyclopropane carbonitrile] | 26.8 nM | 3.12 nM | 98.4 nM |  |  |  |  | 
N#CC1(CNc2ccc(-c3nc(Nc4cnn(C5CCNCC5)c4)ncc3Cl)cc2)CC1 [Example 44, 1-(((4-(5-chloro-2-((1-(piperidin-4-yl)-1H-pyrazol-4-yl)amino)pyrimidin-4-yl)phenyl)amino)methyl)cyclopropane carbonitrile] | 35.3 nM | 1.46 nM | 173 nM |  |  |  |  | 
